The values that follow come from patent US20240287104A1, “NUCLIDE LABELLED H-TETRAZINES AND USE THEREOF FOR PET AND SPECT PRETARGETED IMAGING AND RADIONUCLIDE THERAPY” (RIGSHOSPITALET, priority 2020, published 2024).

Data set [1] can be described thus: Stability in phosphate-buffered saline (PBS) by analytical HPLC. To be noted: 12 h at 37° C.; for Stability in PBS (degradation): analytical HPLC. In kind it is physicochemical. Here is the method: The in vitro stability of UB108 and UB137 was assessed by analytical HPLC in Phosphate-buffered saline (PBS), Example 13 for UB108. […] Consequently, the organotin precursors were synthesized with an unoptimized synthetic strategy (FIG. 6, Examples 101 and 110). Radiolabeling succeeded in a one-pot, two step sequence with a RCY (d.c.) of approx. 10% and an overall synthesis time of ca. 90 minutes including synthesis, separation and formulation steps. An activity yield of 636 MBq starting from 11 GBq fluoride-18, and RCP of 98% at EOS was observed (FIGS. 6 and 11). UB137 could be labeled with similar results (FIGS. 6 and 7). The tetrazine ligation of ^18F-UB108 with s-TCO occurred rapidly, forming ligation products after click reaction (FIG. 11). Stability evaluation was completed for the formulated compound ^18F-UB108 in PBS at room temperature. […] UB137 could be labeled with similar results.
The shelf stability of UB-108 was assessed in phosphate-buffered saline (PBS) by analytical-HPLC. […] Consequently, the stannane precursor was synthesized in 4 steps (example 98-101 Radiolabeling succeeded in a one-pot, two-step sequence with a RCY (d.c.) of 11±3% (n=4) and an overall synthesis time of ca. 90 minutes including synthesis, separation and formulation. [^18F]-UB108 was obtained with an Am of 134±22 GBq/μmol (d.c.), a RCP of ≥99% (n=4) and an activity yield of 600-700 MBq (EOS) starting from ˜12 GBq fluoride-18. [^18F]-UB108 was stable in PBS at room temperature for minimum 4 h and rapidly reacted with TCO-PNP carbonate (23) as confirmed by radio-HPLC. Residual amounts of Cu and Sn in the final formulated solution were analyzed by ICP-MS and found to be well below the allowed limits specified in the ICH Guidelines (41-60 and 2.3-3.0 μg/L vs. 300 and 600 μg/day, respectively).

Data set [2] relates to CC49-TCO pretargeted LS174T tumor xenografts. As to the kind of experiment: Blocking experiments with [111In]Q (Example 126, FIG. 3). In kind it is in vivo, nude BALB/c mice. Particulars: FIG. 3, cold 19F-Tz 2 h before [111In]Q. Here is the method: In this respect, we designed two highly reactive Tzs, which allowed ^18F-labeling and respective introduction of polar groups (FIG. 4-8). UB137 and UB108 were synthesized in sufficient yields via a Pinner-like synthesis as described in Example 97 and 106 and their ability to be used in pretargeted imaging were evaluated. The results were compared with the performance of compounds UB-65 and RGV-52 (FIG. 3). Efficiency in vivo was tested in an ex vivo screening assay lately published by our group and is inspired by traditional receptor blocking studies. In short, tumour-bearing mice are injected with a validated TCO-modified pretargeting vector 72 h before a test ^19F-Tz is administered. Subsequently after 2 hours, a pretargeted established ^111In-DOTA-Tz (Q)[6] is administered to the same mouse. […] In this manner, the blocking ability of the cold ^19F-Tz can be evaluated. […]
All animal studies were approved by the Danish Animal Welfare Council, ministry of Justice. […] Tumors were measured using a caliper and the volume calculated using the formula volume=½(length×width^2).
These blocking experiments were made using the method described in Example 125. […] All tissues were weighted and the radioactivity measured in a gamma counter (Wizard2, Perkin Elmer) and data was corrected for decay, tissue weight and injected amount of radioactivity. […]

In data set [3] the test system is CC49-TCO pretargeted LS174T colon carcinoma xenografts. As to the kind of experiment: Pretargeted blocking assay with [111In]Q (Example 140). In kind it is in vivo, BALB/c mice. Particulars: for Blocking effect: unlabeled Tz i.v. 72 h after CC49-TCO and 1 h before [111In]Q, change in tumor uptake 22 h p.i., normalized to unblocked group. As to the method: All animal studies were approved by the Danish Animal Welfare Council, ministry of Justice. Five weeks old female nude BALB/c mice (Charles River, Sulzfeld, Germany) were allowed to acclimatize for one week with access to water and chow ad libitum. Human colon cancer cell line (LS174T; obtained from ATCC) was cultured in minimum essential medium (MEM) supplemented with 10% fetal bovine serum, 1% L-Glutamine, 1% Sodium pyruvate, 1% non-essential amino acids, and 1% penicillin-streptomycin at 37° C. and 5% CO2. Cells were harvested by trypsination at a confluence of 70-90% and subcutaneous tumors were established in the left flank of the 6 weeks old animals by inoculation of ˜5×10^6 LS174T cells resuspended in sterile PBS (100 μL) and allowed to grow for 7-10 days. Tumors were measured using a caliper and the volume calculated using the formula volume=½(length×width^2).
The assay was inspired by receptor blocking experiments and based on the pretargeted imaging approach reported by Rossin et al. An ^111In-labeled Tz [^111In]Q was used in pair with TCO-modified CC49, a non-internalizing mAb that targets the tumor-associated glycoprotein 72 (TAG72), as a benchmark model for the in vivo ligation.
The TCO-modification of CC49 was carried out according to Rossin et al. To study the in vivo ligation performance of Tz-derivatives 1a-45a, BALB/c mice bearing LS174T colon carcinoma xenografts were injected intravenously (i.v.) with CC49-TCO 72 h prior to i.v. injection of the unlabeled Tz, followed by administration of [^111In]Q 1 h later. The animals were euthanized after 22 h and an ex vivo biodistribution was carried out to quantify the tumor uptake of [111 In]Q (FIG. 15). The efficiency of the in vivo ligation of the unlabeled Tz can thus be correlated to a reduced uptake of [111 In]Q (FIG. 15). As a control, blocking was performed using the non-radioactive precursor of [^111In]Q, which blocked ≥99% of the [^111In]Q tumor uptake. A group of CC49-TCO pretreated mice were injected exclusively with [^111In]Q (without blocking) and the determined uptake was used as reference value (100%) to normalize the observed changes in tumor uptake in blocking experiments.
All of these probes include H-phenyl-, pyrimidyl-phenyl-, or bis(pyridyl)-Tz-scaffolds with second-order rate constants for the reaction with TCO of >70 M 1 s 1 (1,4-dioxane, 25° C.) or of >39,000 M 1 s 1 (DPBS, 37° C.) (cf. Table 5). Next, potential correlations between the blocking effect, the c log D7.4 and the TPSA, as well as IEDDA reactivity were investigated. […] However, a distinct relationship between c log D7.4 values and the blocking effect was evidently observed when comparing Tz-derivatives with similar IEDDA reactivity (FIG. 16C, 16D). For all Tz-scaffolds a Pearson's correlation coefficient >0.78 was found. […] The blocking effect of non-radiolabeled Tz was determined as the change in tumor uptake of [111 In]Q 22 h p.i. Each Tz was administered 1 h prior to [111 In]Q and the uptake normalized to a group of animals were no blocking was performed (control). Data represent mean from n=3 mice/group. Correlation of blocking effect and c log D7.4 for Tz-derivatives with similar IEDDA reactivity (as shown in FIGS. 16C and D) where data was fitted to exponential growth equation Y=Y0 ekx (dotted line). The statistical analysis of the correlation between tumor uptake and c log D7.4 for the different groups of Tz-derivatives (shown in Table 7) was obtained by Pearson's correlation coefficient (r) which describes the goodness of fit between the blocking effect and c log D7.4. Notes: a Reaction of representative Tz with unsubstituted TCO; “Reaction of representative Tz with TCO-PEG4;” Measured for Tz-scaffold A only; n.d.=not determined.

A short description of data set [4]: Second-order rate constants by stopped-flow spectrophotometry, unsubstituted TCO in 1,4-dioxane at 25° C. In kind it is physicochemical. To be noted: value of the Tz-scaffold: representative tetrazine with unsubstituted TCO, n ≥ 4. As to the method:
Reaction kinetics of the Tz-derivatives were determined by pseudo-first order measurements in dioxane at 25.0±0.1° C. or PBS at 27.0±0.1° ° C. in a SX20 stopped flow photometer (Applied Photophysics). The pseudo first order rate constant was determined by linearization of the decay curve followed by linear fitting. The second order rate constant was calculated from the pseudo-first order rate constant.
A structurally diverse library of 45 Tz-derivatives was prepared (FIG. 15), covering a wide spectrum of physicochemical properties, in particular calculated TPSAs between 60-350 Å2 and different lipophilicities, with calculated log D7.4 values (c log D7.4) ranging from approximately −7.0 to 2.5 (Table 5). […] The distribution coefficient at physiological pH (log D7.4) and TPSA were calculated using the software Chemicalize. Tetrazines conjugated to DOTA were calculated with chelated trivalent cations, Tzs with other chelators with bivalent cations. Second-order rate constants for the Tz scaffolds A-L were determined by stopped-flow spectrophotometry (n≥4), monitoring the reaction of representative tetrazines with unsubstituted trans-cyclooctene (TCO) at 25° C. in 1,4-dioxane, and with TCO-PEG4 (modified TCO-5ax-OH, ‘minor-TCO’) in Dulbecco's phosphate buffered saline (DBPS) at 37° C. n≥3.

Data set [5] is described as follows: Second-order rate constants by stopped-flow spectrophotometry, TCO-PEG4 in DPBS at 37° C. To be noted: value of the Tz-scaffold: representative tetrazine with TCO-PEG4, n ≥ 4. Format: physicochemical. As to the method: A structurally diverse library of 45 Tz-derivatives was prepared (FIG. 15), covering a wide spectrum of physicochemical properties, in particular calculated TPSAs between 60-350 Å2 and different lipophilicities, with calculated log D7.4 values (c log D7.4) ranging from approximately −7.0 to 2.5 (Table 5). The Tz-scaffolds (A-L) include mono- and disubstituted methyl-, phenyl-, 2-pyrimidyl-, and 2-pyridyl-substituted Tz-derivatives with second-order rate constants for the reaction with TCO ranging from 1.4 to 230 M^−1 s^−1 in 1,4-dioxane at 25° C., and from 1,100 to 73,000 M^−1 s^−1 in buffered aqueous solution at 37° C. […] Several compounds were obtained as copper(II) complexes (for details see the Supporting Information), which was taken into account in the calculation of c log D7.4 and TPSA. The distribution coefficient at physiological pH (log D7.4) and TPSA were calculated using the software Chemicalize. Tetrazines conjugated to DOTA were calculated with chelated trivalent cations, Tzs with other chelators with bivalent cations. Second-order rate constants for the Tz scaffolds A-L were determined by stopped-flow spectrophotometry (n≥4), monitoring the reaction of representative tetrazines with unsubstituted trans-cyclooctene (TCO) at 25° C. in 1,4-dioxane, and with TCO-PEG4 (modified TCO-5ax-OH, ‘minor-TCO’) in Dulbecco's phosphate buffered saline (DBPS) at 37° C. n≥3.

Structures are written as SMILES.

`O=C(O)CNCc1cc(F)cc(-c2nncnn2)c1` [UB-137, 1-Carboxy-N-(3-fluoro-5-(1,2,4,5-tetrazin-3-yl)benzyl)methanaminium 2,2,2-trifluoroacetate]: the “Stability in PBS (degradation)” value in data set [1] was “did not show degradation”. In addition, in data set [2], the “Blocking effect (ranking)” value is recorded as “best blocking effect”.
As for `O=C(O)CN1CCN(CC(=O)O)CCN(CC(=O)NCCOCCOCCOCCOCCOCCOCCOCCOCCOCCOCCOCCNC(=O)CCCC(=O)Nc2ccc(-c3nnc(-c4ccccn4)nn3)nc2)CCN(CC(=O)O)CC1` [Q, reference compound], the “% Tumor Uptake of [^111In]46 after blocking” value in data set [3] (tumor uptake 22 h p.i. normalized to unblocked group (100%)) is on record as 1%. The Blocking effect in data set [3] is 99%; in data set [3] (listed as non-radioactive precursor of [^111In]Q), not below 99%. Also, the “Rate constant (1,4-dioxane, 25° C.)” value in data set [4] stood at 230 M⁻¹ s⁻¹. The “Rate constant (DPBS, 37° C.)” value in data set [5] is 73,000 M^−1 s^−1.
With `O=C(O)CN(CC(=O)O)Cc1cc(F)cc(-c2nncnn2)c1` [UB-108, 1-Carboxy-N-(carboxymethyl)-N-(3-fluoro-5-(1,2,4,5-tetrazin-3-yl)benzyl)methanaminium 2,2,2-trifluoroacetate], the “Shelf stability in PBS, intact” value in data set [1] (2 nmol/mL) was 98%. For the same molecule, the “Stability in PBS (degradation)” value in data set [1] was “did not show degradation”. Moreover, in data set [2], the “Blocking effect (ranking)” value is listed as “best blocking effect”.
